For the experiment, the target named is T1, β-catenin (Homo sapiens, UniProt P35222).
T1 sequence (P35222 2-781): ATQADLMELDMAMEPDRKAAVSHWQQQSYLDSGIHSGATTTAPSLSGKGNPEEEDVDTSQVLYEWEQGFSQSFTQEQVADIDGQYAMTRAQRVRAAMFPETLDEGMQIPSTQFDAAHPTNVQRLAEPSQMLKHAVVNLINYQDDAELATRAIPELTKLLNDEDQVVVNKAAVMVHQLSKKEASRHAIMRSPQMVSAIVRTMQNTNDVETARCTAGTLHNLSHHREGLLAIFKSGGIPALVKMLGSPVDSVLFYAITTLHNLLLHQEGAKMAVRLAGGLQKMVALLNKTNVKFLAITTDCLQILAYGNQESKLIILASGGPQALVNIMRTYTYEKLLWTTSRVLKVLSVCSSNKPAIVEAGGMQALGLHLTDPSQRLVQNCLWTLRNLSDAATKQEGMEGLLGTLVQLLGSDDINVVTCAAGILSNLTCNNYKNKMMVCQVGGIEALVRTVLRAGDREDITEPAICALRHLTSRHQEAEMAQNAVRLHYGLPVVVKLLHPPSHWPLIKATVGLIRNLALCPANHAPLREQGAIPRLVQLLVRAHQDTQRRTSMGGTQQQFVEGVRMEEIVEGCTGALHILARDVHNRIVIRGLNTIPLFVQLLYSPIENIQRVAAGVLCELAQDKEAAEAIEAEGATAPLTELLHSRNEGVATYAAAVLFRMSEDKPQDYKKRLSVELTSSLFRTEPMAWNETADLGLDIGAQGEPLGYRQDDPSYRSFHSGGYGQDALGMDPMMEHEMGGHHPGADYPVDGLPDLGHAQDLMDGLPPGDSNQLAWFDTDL
As to the kind of experiment: Biolayer interferometry. In kind it is binding. (In general: Biolayer interferometry detects binding as a change in optical thickness at a sensor tip.)

As a reminder, the Kd is the concentration at which binding is half-saturated. Low values mean a tighter complex, high ones a looser complex. With `Cc1cccc2c3c(ccc12)C1=C(C(=O)C3=O)[C@@H](C)CO1` [DHTS, 15,16-Dihydrotanshinone I], the Kd was determined as 14.6 µM.
